Experimental data: patent US20240425497A1, “Cbl-b Inhibitors and Methods of Use Thereof” (ARCUS BIOSCIENCES, INC., priority 2023, published 2024)

What was measured:
[1] = biological target: Cbl-b (Homo sapiens (Human), UniProt Q13191); assay: Cbl-b probe displacement HTRF binding assay; details: 0.4 nM biotinylated Cbl-b, 150 nM BODIPY probe
Procedure: The affinity with which compounds of the present disclosure bind to Cbl-b was assessed using probe displacement homologous time resolved fluorescence (HTRF) assays. The assays used a BODIPY™ conjugated probe (Example 54 from WO 2020264398) and biotinylated Cbl-b. The assays were performed in assay buffer consisting of 20 mM Hepes, 150 mM NaCl, 0.01% Triton X-100, 0.5 mM TCEP, 0.01% BSA. On the day of the assay, a 20 point, 1:2 master serial dilution of each compound was prepared in DMSO to span a final concentration range of 10 μM to 0 nM. Two hundred nanoliters of diluted compound was added to each well of a 384-well plate. Fifteen microliters of biotinylated-Cbl-b resuspended in assay buffer were added to each well and the plate incubated for 60 minutes at room temperature prior to addition of 5 μL of BODIPY™ probe in assay buffer. Final assay conditions included 0.4 nM of Cbl-b and 150 nM of BODIPY™ probe. After a further 15 minutes of incubation at room temperature, 5 μl of Streptavidin-Terbium cryptate reagent at 5-fold final concentration was added to each well of the 384-well plate. Binding of a probe to Cbl-b results in an increase of HTRF signal. HTRF signal was measured by Envision plate reader, while competition of a compound of the present disclosure with probe results in a decrease of signal. Percentage maximum activity in each test well was calculated based on DMSO (maximum activity, 0% displacement) and no protein control wells (baseline activity, 100% displacement). Binding affinity was determined from a dose response curve fitted using a standard four parameter fit equation. See Table 3 for data for compounds (Cbl-b Binding (IC50)).

[2] = system: Jurkat cells; assay: IL-2 secretion assay in CD3/CD28-activated Jurkat cells (AlphaLISA); format: cell-based, human; details: CD3/CD28 activation, 24 h
Procedure: Certain compounds were also evaluated in an IL-2 secretion assay. On the day of the assay, a 16 point, 1:2 master serial dilution of each compound was prepared in Opti-MEM to span a final concentration range of […]. Assays were set up in CORNING® tissue culture-treated 384-well microplates containing 60 nL of each dilution. Jurkat cells grown in RPMI-1640 supplemented with 10% FBS, 1% Glutamax, and 1% Pen/Strep were collected, resuspended in Opti-MEM. 50,000 cells/well and added to the compound plates. After a short spin (1200 rpm for 1 min), the plates were incubated at 37° C. for 1 hour. The cells were activated by adding 15 μL of IMMUNOCULT™ Human CD3/CD28 T Cell Activator (STEMCELL Technologies) diluted in Opti-MEM. After 24 h of incubation at 37° C., aliquots of culture supernatants were transferred to OptiPlate-384 (PerkinElmer) microplates. The level of JIL-2 secretion in the supernatants was then determined using the IL-2 (human) AiphaLISA Detection Kit (PerkinElmer) according to the manufacturer's recommendations. The AiphaLISA signal was measured using an EnVision plate reader (PerkinElmer). EC50 values were determined by fitting the data to a standard 4-parameter logistic equation. See Table 3 for data for select compounds (IL-2 Secretion (EC50)).

Sequence of Cbl-b (Q13191 whole entry, species assumed): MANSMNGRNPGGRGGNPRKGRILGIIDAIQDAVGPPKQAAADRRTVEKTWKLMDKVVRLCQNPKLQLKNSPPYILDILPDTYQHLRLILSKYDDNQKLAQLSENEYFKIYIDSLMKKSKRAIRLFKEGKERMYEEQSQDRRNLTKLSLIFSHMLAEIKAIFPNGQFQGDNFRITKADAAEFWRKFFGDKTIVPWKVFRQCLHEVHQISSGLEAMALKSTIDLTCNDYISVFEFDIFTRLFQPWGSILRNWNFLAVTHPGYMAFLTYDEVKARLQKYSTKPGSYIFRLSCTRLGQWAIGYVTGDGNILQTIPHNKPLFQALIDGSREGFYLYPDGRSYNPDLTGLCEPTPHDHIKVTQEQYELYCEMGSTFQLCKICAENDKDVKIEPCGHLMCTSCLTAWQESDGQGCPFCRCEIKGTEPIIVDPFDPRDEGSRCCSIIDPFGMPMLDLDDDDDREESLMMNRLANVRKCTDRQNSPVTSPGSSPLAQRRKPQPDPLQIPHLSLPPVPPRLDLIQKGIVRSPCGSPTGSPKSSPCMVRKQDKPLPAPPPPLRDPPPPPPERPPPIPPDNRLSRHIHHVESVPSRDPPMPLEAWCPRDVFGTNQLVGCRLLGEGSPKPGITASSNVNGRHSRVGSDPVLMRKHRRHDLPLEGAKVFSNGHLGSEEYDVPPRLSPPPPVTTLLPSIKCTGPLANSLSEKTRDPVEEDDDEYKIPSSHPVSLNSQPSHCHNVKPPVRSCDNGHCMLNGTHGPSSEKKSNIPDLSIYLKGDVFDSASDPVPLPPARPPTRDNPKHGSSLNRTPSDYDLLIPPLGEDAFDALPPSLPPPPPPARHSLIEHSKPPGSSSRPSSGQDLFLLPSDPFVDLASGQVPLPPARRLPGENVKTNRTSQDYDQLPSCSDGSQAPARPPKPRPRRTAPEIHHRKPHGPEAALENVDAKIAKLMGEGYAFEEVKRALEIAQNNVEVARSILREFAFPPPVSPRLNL

Row | IC50 [1] [µM] | EC50 ([2]; Homo sapiens) [µM] | EC50 [2] [µM] | Compound
1 | < 0.1 | 0.1 to 1 | – | O=C(c1cc(F)ccc1-c1cc(C2CC2)nc(-n2cc(C(F)(F)F)c3cc(C4COCCN4)[nH]c3c2=O)c1)N1CC(F)C1 (racemic) [Example 55, 6-[6-cyclopropyl-4-[4-fluoro-2-(3-fluoroazetidine-1-carbonyl)phenyl]pyridin-2-yl]-2-morpholin-3-yl-4-(trifluoromethyl)-1H-pyrrolo[2,3-c]pyridin-7-one]
2 | < 0.1 | 0.1 to 1 | – | CN1CCOCC1c1cc2c(C(F)(F)F)cn(-c3cc(-c4ccc(F)cc4C(=O)N4CC(F)C4)cc(C4CC4)n3)c(=O)c2[nH]1 (racemic) [Example 56, 6-[6-cyclopropyl-4-[4-fluoro-2-(3-fluoroazetidine-1-carbonyl)phenyl]pyridin-2-yl]-2-(4-methylmorpholin-3-yl)-4-(trifluoromethyl)-1H-pyrrolo[2,3-c]pyridin-7-one]
3 | < 0.1 | < 0.1 | – | C[C@H]1CCCN(Cc2cc3c(C4CC4)cn(-c4cc(-c5ccc(F)cc5C(=O)N(C)C)cc(C5CC5)n4)c(=O)c3[nH]2)C1 [Example 1, 2-[2-cyclopropyl-6-[4-cyclopropyl-2-[[(3S)-3-methylpiperidin-1-yl]methyl]-7-oxo-1H-pyrrolo[2,3-c]pyridin-6-yl]pyridin-4-yl]-5-fluoro-N,N-dimethylbenzamide]
4 | 0.1 to 1 | 1 to 5 | – | CCOCCNC(=O)c1cc(F)ccc1-c1cc(C2CC2)nc(-n2cc(C3CC3)c3cc(CN4CCC[C@H](C)C4)[nH]c3c2=O)c1 [Example 2, 2-[2-cyclopropyl-6-[4-cyclopropyl-2-[[(3S)-3-methylpiperidin-1-yl]methyl]-7-oxo-1H-pyrrolo[2,3-c]pyridin-6-yl]pyridin-4-yl]-N-(2-ethoxyethyl)-5-fluorobenzamide]
5 | < 0.1 | 0.1 to 1 | – | C[C@H]1CCCN(Cc2cc3c(C4CC4)cn(-c4cc(-c5ccc(F)cc5C(=O)N5CCOCC5)cc(C5CC5)n4)c(=O)c3[nH]2)C1 [Example 3, 2-{[(S)-3-methyl-1-piperidyl]methyl}-4-cyclopropyl-6-[6-cyclopropyl-4-(4-fluoro-2-morpholinocarbonylphenyl)-2-pyridyl]-1,6-dihydro-1,6-diaza-7-indenone]
6 | < 0.1 | 0.1 to 1 | – | C[C@H]1CCCN(Cc2cc3c(C4CC4)cn(-c4cc(-c5ccc(F)cc5C(=O)N5CCCC5)cc(C5CC5)n4)c(=O)c3[nH]2)C1 [Example 4, 2-{[(S)-3-methyl-1-piperidyl]methyl}-4-cyclopropyl-6-(6-cyclopropyl-4-{4-fluoro-2-[(1-pyrrolidinyl)carbonyl]phenyl}-2-pyridyl)-1,6-dihydro-1,6-diaza-7-indenone]
7 | < 0.1 | 0.1 to 1 | – | CCN(CC)C(=O)c1cc(F)ccc1-c1cc(C2CC2)nc(-n2cc(C3CC3)c3cc(CN4CCC[C@H](C)C4)[nH]c3c2=O)c1 [Example 5, N,N-diethyl2-[2-(2-{[(S)-3-methyl-1-piperidyl]methyl}-4-cyclopropyl-7-oxo-1,6-dihydro-1,6-diaza-6-indenyl)-6-cyclopropyl-4-pyridyl]-5-fluorobenzamide]
8 | < 0.1 | – | – | CO[C@@H](C)CN(C)Cc1cc2ncn(-c3cc(-c4ccc(F)cc4C(=O)N4CC(F)(F)C4)cc(C4CC4)n3)c(=O)c2[nH]1 [Example 40, 3-[6-cyclopropyl-4-[2-(3,3-difluoroazetidine-1-carbonyl)-4-fluorophenyl]pyridin-2-yl]-6-[[[(2S)-2-methoxypropyl]-methylamino]methyl]-5H-pyrrolo[3,2-d]pyrimidin-4-one]
9 | – | – | < 0.1 | COCCNCc1cc2ncn(-c3cc(-c4ccc(F)cc4C(=O)N4CC(F)(F)C4)cc(C4CC4)c3)c(=O)c2[nH]1 [Example 42, 6-{5-cyclopropyl-2′-[(3,3-difluoro-1-azetidinyl)carbonyl]-4′-fluoro-3-biphenylyl}-2-[(2-methoxyethylamino)methyl]-1,6-dihydro-1,4,6-triaza-7-indenone]
